Laboratory results: PubChem BioAssay (NCI)
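Protocol summary: plate cells (96-well), add compound at 5 concentrations, incubate 48 h, interpolate endpoints linearly. TGI: total growth inhibition.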

Tests used:
Assay in all cases: NCI tumour cell line growth inhibition, 48 h
HCT-116 colon = test system: HCT-116 colon
SNB-78 CNS = test system: SNB-78 CNS
DMS 114 small cell lung = test system: DMS 114 small cell lung
K-562 leukemia = test system: K-562 leukemia
KM20L2 colon = test system: KM20L2 colon
M14 melanoma = test system: M14 melanoma
NCI-H460 lung = test system: NCI-H460 lung
HCT-15 colon = test system: HCT-15 colon
RXF-631 renal = test system: RXF-631 renal
OVCAR-5 ovarian = test system: OVCAR-5 ovarian
SW-620 colon = test system: SW-620 colon
SF-268 CNS = test system: SF-268 CNS
TK-10 renal = test system: TK-10 renal
HOP-18 NSCLC = test system: HOP-18 NSCLC
HL-60(TB) leukemia = test system: HL-60(TB) leukemia
LXFL 529 NSCLC = test system: LXFL 529 NSCLC
OVCAR-4 ovarian = test system: OVCAR-4 ovarian
U251 CNS = test system: U251 CNS
HCC-2998 colon = test system: HCC-2998 colon
SN12C renal = test system: SN12C renal
RXF 393 renal = test system: RXF 393 renal
SR leukemia = test system: SR leukemia
HOP-92 NSCLC = test system: HOP-92 NSCLC
KM12 colon = test system: KM12 colon
MALME-3M melanoma = test system: MALME-3M melanoma
MOLT-4 leukemia = test system: MOLT-4 leukemia
M19-MEL melanoma = test system: M19-MEL melanoma
RPMI-8226 leukemia = test system: RPMI-8226 leukemia
NCI-H226 lung = test system: NCI-H226 lung
ACHN renal = test system: ACHN renal
HT29 colon = test system: HT29 colon
IGROV1 ovarian = test system: IGROV1 ovarian
LOX IMVI melanoma = test system: LOX IMVI melanoma
SNB-19 CNS = test system: SNB-19 CNS
786-0 renal = test system: 786-0 renal
SF-539 CNS = test system: SF-539 CNS
A498 renal = test system: A498 renal
NCI-H522 lung = test system: NCI-H522 lung
A549 NSCLC = test system: A549 NSCLC
SK-MEL-5 melanoma = test system: SK-MEL-5 melanoma
HOP-62 NSCLC = test system: HOP-62 NSCLC
DMS 273 small cell lung = test system: DMS 273 small cell lung
SK-MEL-2 melanoma = test system: SK-MEL-2 melanoma
SK-OV-3 ovarian = test system: SK-OV-3 ovarian
CCRF-CEM leukemia = test system: CCRF-CEM leukemia
DLD-1 colon = test system: DLD-1 colon
OVCAR-8 ovarian = test system: OVCAR-8 ovarian
UACC-257 melanoma = test system: UACC-257 melanoma
CAKI-1 renal = test system: CAKI-1 renal
UO-31 renal = test system: UO-31 renal
UACC-62 melanoma = test system: UACC-62 melanoma
COLO 205 colon = test system: COLO 205 colon
SF-295 CNS = test system: SF-295 CNS
SNB-75 CNS = test system: SNB-75 CNS
EKVX NSCLC = test system: EKVX NSCLC
SK-MEL-28 melanoma = test system: SK-MEL-28 melanoma
OVCAR-3 ovarian = test system: OVCAR-3 ovarian
NCI-H23 lung = test system: NCI-H23 lung
PC-3 prostate = test system: PC-3 prostate
MDA-MB-231 breast = test system: MDA-MB-231 breast
MDA-MB-435 = test system: MDA-MB-435
DU-145 prostate = test system: DU-145 prostate
T-47D breast = test system: T-47D breast
HS 578T breast = test system: HS 578T breast
MCF7 breast = test system: MCF7 breast
BT-549 breast = test system: BT-549 breast
MDA-N = test system: MDA-N

COc1cc2c(c(OC)c1OC)CCNC2C1=C(O)COC1=O (stereo not given)
TGI (HCT-116 colon): > 100 µM | TGI (SNB-78 CNS): > 100 µM | TGI (DMS 114 small cell lung): > 100 µM | TGI (K-562 leukemia): > 100 µM | TGI (KM20L2 colon): > 100 µM | TGI (M14 melanoma): > 100 µM | TGI (NCI-H460 lung): > 100 µM | TGI (HCT-15 colon): > 100 µM | TGI (RXF-631 renal): > 100 µM | TGI (OVCAR-5 ovarian): > 100 µM | TGI (SW-620 colon): > 100 µM | TGI (SF-268 CNS): > 100 µM | TGI (TK-10 renal): > 100 µM | TGI (HOP-18 NSCLC): > 100 µM | TGI (HL-60(TB) leukemia): > 100 µM | TGI (LXFL 529 NSCLC): > 100 µM | TGI (OVCAR-4 ovarian): > 100 µM | TGI (U251 CNS): > 100 µM | TGI (HCC-2998 colon): > 100 µM | TGI (SN12C renal): > 100 µM | TGI (RXF 393 renal): > 100 µM | TGI (SR leukemia): > 100 µM | TGI (HOP-92 NSCLC): > 100 µM | TGI (KM12 colon): > 100 µM | TGI (MALME-3M melanoma): > 100 µM | TGI (MOLT-4 leukemia): > 100 µM | TGI (M19-MEL melanoma): > 100 µM | TGI (RPMI-8226 leukemia): > 100 µM | TGI (NCI-H226 lung): 99.5 µM | TGI (ACHN renal): > 100 µM | TGI (HT29 colon): > 100 µM | TGI (IGROV1 ovarian): > 100 µM | TGI (LOX IMVI melanoma): > 100 µM | TGI (SNB-19 CNS): > 100 µM | TGI (786-0 renal): > 100 µM | TGI (SF-539 CNS): > 100 µM | TGI (A498 renal): > 100 µM | TGI (NCI-H522 lung): > 100 µM | TGI (A549 NSCLC): > 100 µM | TGI (SK-MEL-5 melanoma): > 100 µM | TGI (HOP-62 NSCLC): > 100 µM | TGI (DMS 273 small cell lung): > 100 µM | TGI (SK-MEL-2 melanoma): > 100 µM | TGI (SK-OV-3 ovarian): > 100 µM | TGI (CCRF-CEM leukemia): > 100 µM | TGI (DLD-1 colon): > 100 µM | TGI (OVCAR-8 ovarian): > 100 µM | TGI (UACC-257 melanoma): > 100 µM | TGI (CAKI-1 renal): > 100 µM | TGI (UO-31 renal): > 100 µM | TGI (UACC-62 melanoma): > 100 µM | TGI (COLO 205 colon): > 100 µM | TGI (SF-295 CNS): > 100 µM | TGI (SNB-75 CNS): > 100 µM

NCCCNC(=O)c1csc(NC(=O)c2csc(NC(=O)CCCN)n2)n1
TGI (HCT-116 colon): > 100 µM | TGI (SNB-78 CNS): > 100 µM | TGI (DMS 114 small cell lung): > 100 µM | TGI (K-562 leukemia): > 100 µM | TGI (EKVX NSCLC): > 100 µM | TGI (KM20L2 colon): > 100 µM | TGI (M14 melanoma): > 100 µM | TGI (NCI-H460 lung): > 100 µM | TGI (HCT-15 colon): > 100 µM | TGI (RXF-631 renal): > 100 µM | TGI (OVCAR-5 ovarian): > 100 µM | TGI (SK-MEL-28 melanoma): > 100 µM | TGI (SF-268 CNS): > 100 µM | TGI (TK-10 renal): > 100 µM | TGI (HOP-18 NSCLC): > 100 µM | TGI (HL-60(TB) leukemia): > 100 µM | TGI (LXFL 529 NSCLC): > 100 µM | TGI (OVCAR-4 ovarian): 44 µM | TGI (U251 CNS): > 100 µM | TGI (HCC-2998 colon): > 100 µM | TGI (SN12C renal): > 100 µM | TGI (SR leukemia): > 100 µM | TGI (HOP-92 NSCLC): > 100 µM | TGI (OVCAR-3 ovarian): > 100 µM | TGI (KM12 colon): > 100 µM | TGI (MALME-3M melanoma): > 100 µM | TGI (MOLT-4 leukemia): > 100 µM | TGI (M19-MEL melanoma): > 100 µM | TGI (NCI-H23 lung): > 100 µM | TGI (RPMI-8226 leukemia): > 100 µM | TGI (NCI-H226 lung): > 100 µM | TGI (ACHN renal): > 100 µM | TGI (HT29 colon): > 100 µM | TGI (IGROV1 ovarian): > 100 µM | TGI (786-0 renal): > 100 µM | TGI (SF-539 CNS): > 100 µM | TGI (A498 renal): > 100 µM | TGI (NCI-H522 lung): > 100 µM | TGI (A549 NSCLC): > 100 µM | TGI (SK-MEL-5 melanoma): > 100 µM | TGI (HOP-62 NSCLC): > 100 µM | TGI (DMS 273 small cell lung): > 100 µM | TGI (SK-MEL-2 melanoma): > 100 µM | TGI (SK-OV-3 ovarian): > 100 µM | TGI (CCRF-CEM leukemia): > 100 µM | TGI (DLD-1 colon): > 100 µM | TGI (OVCAR-8 ovarian): > 100 µM | TGI (UACC-257 melanoma): > 100 µM | TGI (CAKI-1 renal): > 100 µM | TGI (UO-31 renal): > 100 µM | TGI (UACC-62 melanoma): > 100 µM | TGI (COLO 205 colon): > 100 µM | TGI (SF-295 CNS): > 100 µM | TGI (SNB-75 CNS): > 100 µM

CN(C)CCNC(=O)c1cccc2nc3c(ccc4ccccc43)nc12
TGI (HCT-116 colon): 5.68 µM | TGI (PC-3 prostate): 10.1 µM | TGI (SNB-78 CNS): 19.4 µM | TGI (DMS 114 small cell lung): 8.12 µM | TGI (K-562 leukemia): 4.86 µM | TGI (EKVX NSCLC): 17.8 µM | TGI (KM20L2 colon): 3.15 µM | TGI (M14 melanoma): 11 µM | TGI (NCI-H460 lung): 1.91 µM | TGI (HCT-15 colon): 4.6 µM | TGI (RXF-631 renal): 2.43 µM | TGI (OVCAR-5 ovarian): 15 µM | TGI (SW-620 colon): 3.61 µM | TGI (SK-MEL-28 melanoma): 4.37 µM | TGI (SF-268 CNS): 2.19 µM | TGI (TK-10 renal): 20.6 µM | TGI (HOP-18 NSCLC): 29.9 µM | TGI (HL-60(TB) leukemia): 3.98 µM | TGI (LXFL 529 NSCLC): 14 µM | TGI (OVCAR-4 ovarian): 5.27 µM | TGI (U251 CNS): 4.49 µM | TGI (HCC-2998 colon): 7.18 µM | TGI (SN12C renal): 14.6 µM | TGI (RXF 393 renal): 9.54 µM | TGI (SR leukemia): 4.25 µM | TGI (HOP-92 NSCLC): 17.3 µM | TGI (MDA-MB-231 breast): 4.12 µM | TGI (OVCAR-3 ovarian): 19.7 µM | TGI (KM12 colon): 6.9 µM | TGI (MALME-3M melanoma): 3.05 µM | TGI (MOLT-4 leukemia): 1.6 µM | TGI (MDA-MB-435): 13.7 µM | TGI (M19-MEL melanoma): 3.02 µM | TGI (NCI-H23 lung): 15.9 µM | TGI (RPMI-8226 leukemia): 6.66 µM | TGI (NCI-H226 lung): 10.9 µM | TGI (ACHN renal): 4.34 µM | TGI (HT29 colon): 4.08 µM | TGI (IGROV1 ovarian): 22.2 µM | TGI (LOX IMVI melanoma): 2.44 µM | TGI (SNB-19 CNS): 18.1 µM | TGI (786-0 renal): 17.6 µM | TGI (DU-145 prostate): 16.4 µM | TGI (T-47D breast): 20.6 µM | TGI (SF-539 CNS): 3.59 µM | TGI (A498 renal): 15.5 µM | TGI (NCI-H522 lung): 18.7 µM | TGI (A549 NSCLC): 12.2 µM | TGI (SK-MEL-5 melanoma): 4.03 µM | TGI (HOP-62 NSCLC): 7.88 µM | TGI (HS 578T breast): 22.8 µM | TGI (MCF7 breast): 3.27 µM | TGI (DMS 273 small cell lung): > 100 µM | TGI (BT-549 breast): 22.8 µM | TGI (SK-MEL-2 melanoma): 3.86 µM | TGI (SK-OV-3 ovarian): 24.2 µM | TGI (CCRF-CEM leukemia): 4.68 µM | TGI (DLD-1 colon): 8.25 µM | TGI (MDA-N): 3.21 µM | TGI (OVCAR-8 ovarian): 7.84 µM | TGI (UACC-257 melanoma): 3.4 µM | TGI (CAKI-1 renal): 12.9 µM | TGI (UO-31 renal): 14.9 µM | TGI (UACC-62 melanoma): 5.2 µM | TGI (COLO 205 colon): 11.3 µM | TGI (SF-295 CNS): 14.3 µM | TGI (SNB-75 CNS): 16.5 µM
